Data taken from ChEMBL document CHEMBL6078719, “Discovery of acetohydroxyacid synthase inhibitors as anti-tuberculosis lead compounds from natural products” (Bioorg Med Chem, 2025).
≈ marks a conversion by molar mass, not a printed value. Calls of active or inactive are those of the source. The rule behind the calls is not given here.

Tests used:
[1] = tested on: Mycolicibacterium smegmatis; assay: Antibacterial activity against Mycobacterium smegmatis assessed as inhibition of bacterial growth incubated for 3 days by alamar blue staining based assay; format: functional; settings: 72 h, time 3 day
[2] = Inhibition of Mycobacterium tuberculosis Acetohydroxy acid synthase using pyruvate as substrate incubated for 10 mins followed by substrate addition by colorimetric assay
[3] = Inhibition of Mycobacterium tuberculosis Acetohydroxy acid synthase using pyruvate as substrate at 40 uM incubated for 10 mins followed by substrate addition by colorimetric assay relative to control
[4] = Binding affinity to Mycobacterium tuberculosis Acetohydroxy acid synthase assessed as binding constant by isothermal titration calorimetry
[5] = tested on: Mycobacterium tuberculosis; assay: Synergistic antibacterial activity against Mycobacterium tuberculosis assessed as inhibition of bacterial growth incubated for 3 days in presence of rifampicin by alamar blue staining based assay; format: functional, organism-based; settings: time 3.0 day
[6] = tested on: Mycobacterium tuberculosis; assay: Antibacterial activity against Mycobacterium tuberculosis assessed as inhibition of bacterial growth incubated for 3 days by alamar blue staining based assay; format: functional; settings: 72 h, time 3 day
[7] = tested on: Mycobacterium tuberculosis; assay: Binding affinity to Mycobacterium tuberculosis Acetohydroxy acid synthase assessed as change in enthalpy by isothermal titration calorimetry
[8] = Cytotoxicity against human THP-1 cells incubated for 48 hrs by CCK8 assay; format: toxicity, cell-based
[9] = tested on: Mycobacterium tuberculosis; assay: Binding affinity to Mycobacterium tuberculosis Acetohydroxy acid synthase assessed as gibbs free energy change by isothermal titration calorimetry
[10] = Selectivity index, ratio of IC50 for cytotoxicity against human THP-1 cells to MIC90 for antimycobacterial activity against Mycobacterium tuberculosis; format: toxicity, cell-based; settings: read-out: Selectivity Index
[11] = tested on: Mycolicibacterium smegmatis; assay: Synergistic antibacterial activity against Mycobacterium smegmatis assessed as inhibition of bacterial growth incubated for 3 days in presence of rifampicin by alamar blue staining based assay; format: functional, organism-based; settings: time 3.0 day
[12] = tested on: Mycobacterium tuberculosis; assay: Antimycobacterial activity against Mycobacterium tuberculosis assessed as inhibition of bacterial growth; format: functional

Question: With COc1ccc(-c2oc3c(CCC(C)(C)O)c(O)cc(O)c3c(=O)c2O)cc1 as the compound, how does the MIC [1] read?
Answer: The MIC was greater than 5000 µM.

Question: What about the IC50 [2] of the same compound?
Answer: The IC50 was 32.4 µM.

Question: What about the inhibition [3] of the same compound?
Answer: The inhibition was greater than 90%.

Question: Which Kd [4] does the source give for CC1=C(O)C(=O)C=C2C1=CC=C1[C@@]2(C)CC[C@@]2(C)[C@@H]3C[C@](C)(C(=O)O)CC[C@]3(C)CC[C@]12C [CELASTROL] here?
Answer: The Kd was 1.9 µM.

Question: What about the Activity [5] of the same compound?
Answer: The Activity was “inactive”.

Question: And the MIC [6]?
Answer: Its MIC is 80 µM (≈ 36 µg/mL).

Question: And the MIC [1]?
Answer: Its MIC is 62.5 µM (≈ 28.2 µg/mL).

Question: What about the deltaH [7] of the same compound?
Answer: Its deltaH is -9.87 kcal/mol.

Question: What about the IC50 [2] of the same compound?
Answer: Its IC50 is 0.81 µM.

Question: And the IC50 at 48 h [8]?
Answer: Its IC50 at 48 h is 12.5 µM.

Question: What about the deltaG [9] of the same compound?
Answer: Its deltaG is -7.81 kcal/mol.

Question: What about the selectivity ratio [10] of the same compound?
Answer: Its selectivity ratio is less than 1.

Question: What about the inhibition [3] of the same compound?
Answer: Its inhibition is greater than 90%.

Question: And the Activity [11]?
Answer: Its Activity is “inactive”.

Question: What about the MIC90 [12] of the same compound?
Answer: Its MIC90 is 80 µM (≈ 36 µg/mL).

Question: Which results are given for CCCCCCCCCCCC1=C(O)C(=O)C=C(O)C1=O [EMBELIN]?
Answer: MIC [1]: > 5000 µM; IC50 [2]: 9.46 µM; inhibition [3]: > 90%

Question: What does the source list for O=C(/C=C/c1ccc(O)c(O)c1/C=C/c1ccc(O)c(O)c1)O[C@H](Cc1ccc(O)c(O)c1)C(=O)O [SALVIANOLIC ACID A]?
Answer: Activity [5]: inactive; MIC [6]: 312 µM (≈ 155 µg/mL); MIC [1]: 125 µM (≈ 61.8 µg/mL); IC50 [2]: 0.84 µM; inhibition [3]: > 90%; Activity [11]: inactive

Question: Which MIC [1] does the source give for COC(=O)c1ccccc1S(=O)(=O)NC(=O)Nc1nc(C)cc(C)n1 [SULFOMETURON METHYL] here?
Answer: The MIC was 7.8 µM (≈ 2.84 µg/mL).

Question: What about the IC50 [2] of the same compound?
Answer: Its IC50 is 3.68 µM.

Question: What about the inhibition [3] of the same compound?
Answer: Its inhibition is greater than 90%.
